Test results taken from ChEMBL document CHEMBL1149872, “Glycosides from the root of Iodes cirrhosa” (2008).

test system: PC-12; assay: Neuroprotective activity against rat PC12 cells assessed as glutamate-induced neurotoxicity at 10 uM after 24 hrs by MTT assay; format: functional

Question: For `COc1cc([C@@H](O)[C@H](CO)Oc2ccc(CCCO[C@@H]3O[C@H](CO)[C@@H](O)[C@H](O)[C@H]3O)cc2O)ccc1O`, which Activity is on record?
Answer: The Activity was 36.4%.

Question: `COc1cc([C@@H](O)[C@H](CO)O[C@@H]2O[C@H](CO)[C@@H](O)[C@H](O)[C@H]2O)ccc1O` was tested. Which Activity did it give?
Answer: The Activity was -46.6%.

Question: With `COc1cc([C@H](O)[C@H](CO)O[C@@H]2O[C@H](CO)[C@@H](O)[C@H](O)[C@H]2O)cc(OC)c1O` as the compound, how does the Activity read?
Answer: Its Activity is -28.4%.

Question: For `COc1cc([C@H](O)[C@H](CO)O[C@@H]2O[C@H](CO)[C@@H](O)[C@H](O)[C@H]2O)ccc1O`, which Activity is on record?
Answer: Its Activity is -32.9%.

Question: How did the Activity turn out when `COc1cc([C@H]2OC[C@H]3[C@@H]2CO[C@@H]3c2cc(OC)c(O[C@@H]3O[C@H](CO)[C@@H](O)[C@H](O)[C@H]3O)c(OC)c2)cc(OC)c1O[C@H]1O[C@@H](CO)[C@H](O)[C@@H](O)[C@@H]1O` [LIRIODENDRTACHIOSIDE] was run?
Answer: The Activity was 20.5%.
